From ChEMBL document CHEMBL3784972, “Optimization of N'-(arylsulfonyl)pyrazoline-1-carboxamidines by exploiting a novel interaction site in the 5-HT6 antagonistic binding pocket” (Bioorg Med Chem Lett, 2016)
pIC50, pKi: −log10 of the molar value.

What was measured:
[1] = biological target: T1, 5-hydroxytryptamine receptor 6 (Homo sapiens, UniProt P50406); test: Displacement of [3H]-N-Methyl-Lysergic acid diethylamide from human 5-HT6 receptor expressed in CHO cells after 30 mins by liquid scintillation counting analysis; assay type: cell-based
in vitro [2] = conditions: human, hepatocytes
in vitro [3] = conditions: Sprague Dawley, rat, hepatocytes
[4] = biological target: T1, 5-hydroxytryptamine receptor 6; test: Antagonist activity at human recombinant 5-HT6 receptor expressed in CHO cells assessed as inhibition of agonist induced intracellular calcium levels by aequorin assay; assay type: functional, cell-based; conditions: read-out: pA2 (converted)
MDR = test: in vitro; conditions: pig, LLC-PK1
Description: Permeability across pig LLC-PK1 cells expressing MDR assessed as ratio of bottom to top transport over top to bottom transport at 1 ug/ml after 3 hrs by LC/MS analysis

LLC-PK1 = conditions: pig
Description: Permeability across pig LLC-PK1 cells expressing MDR assessed as membrane passage at 1 ug/ml after 3 hrs by LC/MS analysis

[5] = Fraction unbound in rat brain at 10 mg/kg, po; assay type: ADME, organism-based
[6] = Lipophilicity, log D of the compound at pH 7; assay type: physicochemical; conditions: buffer
[7] = biological target: Serotonin (5-HT) receptor; test: Binding affinity to 5-HT receptor (unknown origin); assay type: protein assay, Homo sapiens
[8] = Tmax in rat CNS at 10 mg/kg, po; assay type: ADME, organism-based
[9] = Tmax in rat plasma at 10 mg/kg, po; assay type: ADME, organism-based
Dopamine receptor = test: Binding affinity to dopamine receptor (unknown origin); assay type: protein assay, Homo sapiens
Rattus norvegicus = test: Inhibition of cognitive impairment in po dosed rat administered 0.5 hrs before testing; assay type: functional
[10] = Binding affinity to Muscarinic receptor (unknown origin); parameters: species or system Homo sapiens
Cannabinoid receptor = Cannabinoid receptor (Homo sapiens, UniProt P34972+P21554); test: Binding affinity to Cannabinoid receptor (unknown origin); assay type: protein assay
[11] = biological target: Voltage-gated inwardly rectifying potassium channel KCNH2 (Homo sapiens, UniProt Q12809); test: Inhibition of human ERG
[12] = Clearance in rat at 10 mg/kg, po; assay type: ADME, organism-based; conditions: in vivo
[13] = Binding affinity to alpha adrenergic receptor (unknown origin); parameters: species or system Homo sapiens
[14] = Cmax in rat plasma at 20 mg/kg, po; assay type: ADME, organism-based; parameters: dose 20 mg/kg, route oral
[15] = Oral bioavailability in rat at 10 mg/kg; assay type: ADME, organism-based; conditions: in vivo
[16] = Ratio of drug uptake in rat CNS to plasma at 10 mg/kg, po; assay type: ADME, organism-based

T1 sequence (P50406 whole entry): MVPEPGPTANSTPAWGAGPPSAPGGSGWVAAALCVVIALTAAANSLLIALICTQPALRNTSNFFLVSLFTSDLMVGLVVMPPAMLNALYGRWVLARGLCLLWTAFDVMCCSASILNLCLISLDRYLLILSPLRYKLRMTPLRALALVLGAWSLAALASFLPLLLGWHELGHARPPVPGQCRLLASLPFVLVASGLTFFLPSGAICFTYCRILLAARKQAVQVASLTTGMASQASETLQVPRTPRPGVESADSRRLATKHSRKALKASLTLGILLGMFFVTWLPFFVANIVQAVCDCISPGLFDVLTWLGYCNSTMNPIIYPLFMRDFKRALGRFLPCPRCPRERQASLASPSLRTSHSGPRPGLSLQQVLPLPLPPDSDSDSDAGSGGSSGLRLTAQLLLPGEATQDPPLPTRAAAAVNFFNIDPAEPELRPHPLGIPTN
Chain of Voltage-gated inwardly rectifying potassium channel KCNH2 (Q12809 whole entry): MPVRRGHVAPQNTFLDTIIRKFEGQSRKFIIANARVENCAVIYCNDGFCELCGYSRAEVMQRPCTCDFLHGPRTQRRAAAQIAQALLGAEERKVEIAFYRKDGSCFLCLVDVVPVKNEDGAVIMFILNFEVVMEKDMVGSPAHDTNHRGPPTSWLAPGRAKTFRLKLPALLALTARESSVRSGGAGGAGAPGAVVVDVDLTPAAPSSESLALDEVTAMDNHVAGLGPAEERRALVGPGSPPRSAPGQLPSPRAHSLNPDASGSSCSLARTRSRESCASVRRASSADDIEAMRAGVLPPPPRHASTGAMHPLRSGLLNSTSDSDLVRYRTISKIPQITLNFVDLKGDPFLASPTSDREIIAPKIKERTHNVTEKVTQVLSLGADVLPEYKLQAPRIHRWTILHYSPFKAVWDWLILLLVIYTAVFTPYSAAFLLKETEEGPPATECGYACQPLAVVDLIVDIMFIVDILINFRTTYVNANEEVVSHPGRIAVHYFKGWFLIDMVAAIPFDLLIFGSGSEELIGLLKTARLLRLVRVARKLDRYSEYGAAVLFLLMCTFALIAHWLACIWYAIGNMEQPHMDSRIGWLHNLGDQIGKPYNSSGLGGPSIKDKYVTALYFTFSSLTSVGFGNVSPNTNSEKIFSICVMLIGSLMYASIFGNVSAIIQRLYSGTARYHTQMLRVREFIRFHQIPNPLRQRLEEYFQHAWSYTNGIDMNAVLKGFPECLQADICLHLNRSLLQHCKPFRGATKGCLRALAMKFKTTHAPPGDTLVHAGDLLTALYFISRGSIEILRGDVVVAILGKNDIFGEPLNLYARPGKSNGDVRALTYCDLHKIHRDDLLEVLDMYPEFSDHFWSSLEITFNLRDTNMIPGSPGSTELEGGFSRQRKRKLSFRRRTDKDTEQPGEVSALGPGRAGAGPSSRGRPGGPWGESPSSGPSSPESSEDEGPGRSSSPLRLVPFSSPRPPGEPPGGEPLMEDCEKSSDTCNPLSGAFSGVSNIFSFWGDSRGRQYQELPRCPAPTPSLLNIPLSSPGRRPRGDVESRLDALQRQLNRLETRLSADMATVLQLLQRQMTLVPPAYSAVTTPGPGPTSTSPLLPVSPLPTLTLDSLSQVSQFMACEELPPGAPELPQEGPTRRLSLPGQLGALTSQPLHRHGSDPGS

Structure (SMILES) | pKi [1] | hepatocyte CLint (in vitro [2]) [µL/min/1e6 cells] | hepatocyte CLint (in vitro [3]) [µL/min/1e6 cells] | Kb [4] [nM] | efflux ratio at 3 h, 1 ug/ml (MDR) | permeability (LLC-PK1; llc-pk1, 3 h, at 1 µg/mL) [%] | other results
CCN/C(=N\S(=O)(=O)c1ccc2[nH]ncc2c1)N1CC2(C=N1)CCCC2 | 7.54 | 19 | 99 | 12.6 |  |  | 
CCN/C(=N\S(=O)(=O)c1ccc(OC)cc1)N1CC2(C=N1)CCCC2 | 6.68 |  |  | > 1000 | 1.2 | 40.4 | 
CCN/C(=N\S(=O)(=O)c1ccc(N)cc1)N1CC2(C=N1)CCCCC2 | 8.15 | 17 | 53 | 5.01 | 3.3 | 36.5 | 
CCN/C(=N\S(=O)(=O)c1cccc(Cl)c1)N1N=CCC1c1ccccc1 (stereo not given) |  |  |  |  |  |  | permeability (LLC-PK1; LLC-PK1, 3 h): 38.5%
CCN/C(=N\S(=O)(=O)c1ccc(N)cc1)N1CC2(C=N1)CCCC2 |  | 8 | 33 | 3.98 | 2.9 | 35.1 | fraction unbound [5]: 0.31; logD [6]: 1; Ki [7]: > 1000 nM; Tmax [8]: 30 min; Tmax [9]: 30 min; Ki (Dopamine receptor): > 1000 nM; LED (Rattus norvegicus): 20 mg/kg; pKi [10]: < 6.00; Ki (Cannabinoid receptor): > 1000 nM; pIC50 [11]: < 5.00; CL/F [12]: 26 mL/min/kg; pKi [13]: < 6.00; Cmax [14]: 1100 ng/mL; bioavailability [15]: 18%; Kp [16]: 0.1
CCN/C(=N\S(=O)(=O)c1ccc(N)c(Cl)c1)N1CC(CC)C=N1 (stereo not given) | 8.82 | 10 | 87 | 0.794 | 1.6 | 38.5 | 
CCN/C(=N\S(=O)(=O)c1cccc(OC)c1)N1CC2(C=N1)CCCC2 | 7.01 |  |  | 126 | 3.2 | 35.2 | 
CCN/C(=N\S(=O)(=O)c1ccccc1)N1CC(CC)C=N1 (stereo not given) |  | 15 | 92 |  | 1.1 | 38.2 | 
CCN/C(=N\S(=O)(=O)c1cccc(N)c1)N1CC2(C=N1)CCCC2 | 7.01 |  |  | 100 | 3.2 | 35.7 | 
CCN/C(=N\S(=O)(=O)c1ccc(N)cc1)N1CC(C)(C)C=N1 | 7.69 | < 1.4 | 20 |  | 3 | 31.6 | 
CCN/C(=N\S(=O)(=O)c1ccc(NC(C)=O)c(Cl)c1)N1CC(CC)C=N1 (stereo not given) | 8.06 |  |  | 10 | 2 | 34.4 | 
CCN/C(=N\S(=O)(=O)c1cccc(Cl)c1)N1N=CCC1c1ccc(N)cc1 (stereo not given) | < 6.00 |  |  | 1580 | 2.7 | 36.2 | 
CCN/C(=N\S(=O)(=O)c1ccc(N)cc1)N1CC2(C=N1)CCNCC2 | 7.85 | 1 | 5 |  |  | 0.3 | 
CCN/C(=N\S(=O)(=O)c1cccc(Cl)c1)N1CC(C)(C)C=N1 |  |  |  |  |  | 41 | 
CCN/C(=N\S(=O)(=O)c1ccc(OC)c(Cl)c1)N1CC2(C=N1)CCCC2 | < 6.00 |  |  | > 1000 | 1.3 | 39.4 | 
CCN/C(=N\S(=O)(=O)c1ccc(N)c(Cl)c1)N1CC2(C=N1)CCCC2 | 8.74 | 27 |  |  |  | 38.1 | 
CCN/C(=N\S(=O)(=O)c1ccc(N)cc1)N1CC(CC)C=N1 (stereo not given) | 8.14 | 4 | 34 | 3.98 | 2.4 | 31.6 | 
CCN/C(=N\S(=O)(=O)c1cc(O)cc(Cl)c1)N1CC2(C=N1)CCCC2 | 8.21 | 107 |  | 0.0501 |  |  | 
CCN/C(=N\S(=O)(=O)c1ccc2[nH]ccc2c1)N1CC2(C=N1)CCCC2 | 8.32 | 11 | 87 | 0.316 |  |  | 
CCN/C(=N\S(=O)(=O)c1ccc2[nH]c(C(F)(F)F)cc2c1)N1CC(C)(C)C=N1 | 6.80 | 22 | 87 | > 1000 |  |  | 
CCN/C(=N\S(=O)(=O)c1cccc(O)c1)N1CC2(C=N1)CCCC2 | 7.73 |  |  | 7.94 | 1.1 | 40.7 | 
CCN/C(=N\S(=O)(=O)c1cccc(Cl)c1)N1N=CCC1c1ccc(O)cc1 (stereo not given) | 6.60 |  |  | > 1000 | 4.9 | 34.9 | 
CCN/C(=N\S(=O)(=O)c1cc(Cl)cc(OC)c1)N1CC2(C=N1)CCCC2 | 7.32 |  |  | 63.1 |  |  | 
CCN/C(=N\S(=O)(=O)c1ccc(N(C)C)cc1)N1CC(CC)C=N1 (stereo not given) | 6.69 |  |  | > 1000 | 1.4 | 38.2 | 
CCN/C(=N\S(=O)(=O)c1ccc2c(c1)CCN2)N1CC2(C=N1)CCCC2 | 7.60 |  |  | 5.01 | 2.6 | 36.5 | 
CCN/C(=N\S(=O)(=O)c1ccc2c(c1)NCC2)N1CC(CC)C=N1 (stereo not given) | 6.40 |  |  | > 1000 | 1.8 | 36.5 | 
CCN/C(=N\S(=O)(=O)c1ccc2cc[nH]c2c1)N1CC(CC)C=N1 (stereo not given) | 7.50 |  |  | 79.4 | 2.8 | 37.7 | 
CCN/C(=N\S(=O)(=O)c1ccc2[nH]ccc2c1)N1CC2(C=N1)CCNCC2 | 7.94 | 1 |  |  |  |  | 
CCN/C(=N\S(=O)(=O)c1ccc(O)c(Cl)c1)N1CC2(C=N1)CCCC2 | 7.84 | 34 | 66 | 10 | 2.4 | 20.5 | 
CCN/C(=N\S(=O)(=O)c1ccc(O)cc1)N1CC2(C=N1)CCCC2 | 8.24 | 21 | 42 | 3.16 | 5.9 | 32 | 
